Source: BindingDB's records for doi:10.1016/S0960-894X(01)80270-5 (1994)

Target: T1, Neutrophil elastase (Homo sapiens, UniProt P08246)
T1 sequence (P08246 whole entry): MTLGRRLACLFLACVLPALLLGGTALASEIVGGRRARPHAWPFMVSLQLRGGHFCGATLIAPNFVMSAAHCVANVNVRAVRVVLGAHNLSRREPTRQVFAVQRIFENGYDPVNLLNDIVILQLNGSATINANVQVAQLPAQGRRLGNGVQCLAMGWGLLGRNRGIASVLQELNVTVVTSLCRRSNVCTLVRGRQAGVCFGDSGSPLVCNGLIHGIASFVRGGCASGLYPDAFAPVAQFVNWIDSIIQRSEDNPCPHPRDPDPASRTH
Assay: Inhibitory activity against human leukocyte elastase using MeO-Suc-Ala-Ala-Pro-Val-pNA (416 uM) as substrate

SMILES | IC50 [µM]
COc1ccc2c(c1)c1c(O)oc(=O)nc1n2CCc1ccccc1 [6-Methoxy-9-phenethyl-1,9-dihydro-[1,3]oxazino[4,5-b]indole-2,4-dione] | > 1000

Target: T1, Neutrophil elastase
Assay: ChEBML_86533
Procedure: Inhibitory activity against human leukocyte elastase using MeO-Suc-Ala-Ala-Pro-Val-pNA (416 uM) as substrate;No Inhibition

SMILES | IC50 [µM]
CCCCn1c(C)c(C)c2c(O)oc(=O)nc21 [1-Butyl-2,3-dimethyl-1,7-dihydro-5-oxa-1,7-diaza-indene-4,6-dione] | > 1000
Cc1c(C)n(C2CCCCC2)c2nc(=O)oc(O)c12 [1-Cyclohexyl-2,3-dimethyl-1,7-dihydro-5-oxa-1,7-diaza-indene-4,6-dione] | > 1000
COCCn1c2ccc(OC)cc2c2c(O)oc(=O)nc21 [6-Methoxy-9-(2-methoxy-ethyl)-1,9-dihydro-[1,3]oxazino[4,5-b]indole-2,4-dione] | > 1000
COc1ccc2c(c1)c1c(O)oc(=O)nc1n2Cc1ccccn1 [6-Methoxy-9-pyridin-2-ylmethyl-1,9-dihydro-[1,3]oxazino[4,5-b]indole-2,4-dione] | > 1000
COc1ccc2c(c1)c1c(O)oc(=O)nc1n2CC(OC)OC [9-(2,2-Dimethoxy-ethyl)-6-methoxy-1,9-dihydro-[1,3]oxazino[4,5-b]indole-2,4-dione] | > 1000
COc1ccc2c(c1)c1c(O)oc(=O)nc1n2C1CCCCC1 [9-Cyclohexyl-6-methoxy-1,9-dihydro-[1,3]oxazino[4,5-b]indole-2,4-dione] | > 1000
COCCn1c2ccc(OC(C)=O)cc2c2c(O)oc(=O)nc21 [Acetic acid 9-(2-methoxy-ethyl)-2,4-dioxo-1,2,4,9-tetrahydro-[1,3]oxazino[4,5-b]indol-6-yl ester] | > 1000
